“And” between values parts separate entries of the source, which are not always exact repeats. Equal entries are not always repeated.
Details: for mass density: 101.33 kPa, Liquid, Vibrating tube method; for surface tension liquid-gas: Pendant drop shape

CCCCCCCn1cc[n+](C)c1.O=S(=O)([N-]S(=O)(=O)C(F)(F)F)C(F)(F)F
Details	mass density [kg/m3]
293.15 K	1349.5
303.15 K	1340.4
313.15 K	1331.5
323.15 K	1322.6
333.15 K	1313.8
343.15 K	1305
353.15 K	1296.3
363.15 K	1287.6
373.15 K	1278.9
383.15 K	1270.1
393.15 K	1261.4
403.15 K	1252.6
413.15 K	1243.8
423.15 K	1235
433.15 K	1226.1
443.15 K	1217
453.15 K	1208
463.15 K	1198.7
473.15 K	1189.4

CCCCCn1cc[n+](C)c1.O=S(=O)([N-]S(=O)(=O)C(F)(F)F)C(F)(F)F
Details	mass density [kg/m3]	surface tension liquid-gas
293.15 K	1408.1	–
303.15 K	1398.7	–
312.7 K	–	29.5 mN/m
313.15 K	1389.4	–
313.2 K	–	30.5 mN/m
323.15 K	1380.3	–
333.15 K	1371.2	–
333.2 K	–	28.3 mN/m
343.15 K	1362.1	–
353.15 K	1353.1	–
353.4 K	–	27.3 mN/m
353.7 K	–	27.2 mN/m
363.15 K	1344	–
373.15 K	1335	–
373.5 K	–	26.3 mN/m
373.7 K	–	26.6 mN/m
383.15 K	1325.9	–
393.15 K	1316.8	–
393.7 K	–	24.7 mN/m and 25.6 mN/m
403.15 K	1307.6	–
413.15 K	1298.4	–
413.6 K	–	24.6 mN/m
413.8 K	–	23.5 mN/m
423.15 K	1288.6	–
433.15 K	1279.7	–
433.5 K	–	22.6 mN/m
433.7 K	–	23.7 mN/m
443.15 K	1270.3	–
453.15 K	1260.8	–
453.5 K	–	21.7 mN/m
453.6 K	–	22.8 mN/m
463.15 K	1251.1	–
473.15 K	1241.3	–
473.3 K	–	21.1 mN/m
473.6 K	–	21.7 mN/m
493 K	–	21.6 mN/m
493.2 K	–	20.8 mN/m
512.9 K	–	20.1 mN/m

CCCCCCCCCCn1cc[n+](C)c1.O=S(=O)([N-]S(=O)(=O)C(F)(F)F)C(F)(F)F
Details	mass density [kg/m3]	surface tension liquid-gas
293.15 K	1284.9	–
303.15 K	1276	–
313.15 K	1267.4	–
313.2 K	–	28.7 mN/m
313.3 K	–	29.1 mN/m
314.1 K	–	27.7 mN/m
323.15 K	1258.8	–
333 K	–	26.7 mN/m
333.15 K	1250.3	–
333.3 K	–	27 mN/m
333.6 K	–	28.1 mN/m
343.15 K	1241.8	–
352.7 K	–	27 mN/m
353.15 K	1233.5	–
353.2 K	–	25.4 mN/m
353.3 K	–	25.3 mN/m
363.15 K	1225.1	–
372.6 K	–	26.3 mN/m
373.15 K	1216.7	–
373.3 K	–	24.3 mN/m
373.4 K	–	24.5 mN/m
383.15 K	1208.4	–
392.4 K	–	24.9 mN/m and 24.6 mN/m
393.15 K	1200	–
393.3 K	–	23.5 mN/m
403.15 K	1191.7	–
412.3 K	–	23.5 mN/m
412.5 K	–	23.6 mN/m
413.15 K	1183.3	–
413.5 K	–	22.4 mN/m
423.15 K	1174.8	–
432.2 K	–	22.9 mN/m
433 K	–	22.2 mN/m
433.15 K	1166.4	–
433.3 K	–	21.5 mN/m
443.15 K	1157.8	–
452.8 K	–	22.2 mN/m
452.9 K	–	21.2 mN/m
453.15 K	1148.9	–
453.2 K	–	20.4 mN/m
463.15 K	1140.2	–
472.7 K	–	21.1 mN/m
472.8 K	–	19.1 mN/m
473.15 K	1131.4	–
473.3 K	–	19.3 mN/m
492.5 K	–	20.1 mN/m
493.1 K	–	18.5 mN/m
513.8 K	–	17.5 mN/m
533.2 K	–	16.9 mN/m

CCCC[n+]1ccn(C)c1.O=S(=O)([N-]S(=O)(=O)C(F)(F)F)C(F)(F)F
Details	mass density [kg/m3]	surface tension liquid-gas
293.15 K	1442.3	–
303.15 K	1432.8	–
312.6 K	–	31.9 mN/m
313.15 K	1423.4	–
313.3 K	–	31.9 mN/m and 30.4 mN/m
323.15 K	1414.1	–
332.6 K	–	30.8 mN/m
333.1 K	–	31.2 mN/m
333.15 K	1404.8	–
333.5 K	–	29.7 mN/m
343.15 K	1395.6	–
352.6 K	–	30.2 mN/m
353.15 K	1386.3	–
353.6 K	–	28.8 mN/m
353.7 K	–	30.1 mN/m
363.15 K	1377.1	–
372.7 K	–	27.9 mN/m
373.15 K	1367.9	–
373.6 K	–	28.1 mN/m
374.1 K	–	29.2 mN/m
383.15 K	1358.7	–
392.7 K	–	26.2 mN/m
393.15 K	1349.4	–
393.6 K	–	25.9 mN/m
394.2 K	–	28.1 mN/m
403.15 K	1340.1	–
412.5 K	–	26 mN/m
413.15 K	1330.7	–
413.6 K	–	25.6 mN/m
414.4 K	–	27.2 mN/m
423.15 K	1321.2	–
432.5 K	–	25.6 mN/m
432.6 K	–	24.9 mN/m
433.15 K	1311.6	–
434.5 K	–	26.6 mN/m
443.15 K	1301.9	–
452.2 K	–	24.4 mN/m and 24.2 mN/m
453.15 K	1292.1	–
455 K	–	25.8 mN/m
463.15 K	1282.2	–
472 K	–	23.3 mN/m
473 K	–	23.7 mN/m
473.15 K	1272	–
475.2 K	–	24.6 mN/m

CCCCCCCCCCCCCCn1cc[n+](C)c1.O=S(=O)([N-]S(=O)(=O)C(F)(F)F)C(F)(F)F
Details	mass density [kg/m3]	surface tension liquid-gas [mN/m]
312.8 K	–	26.3
323.15 K	1193.1	–
323.3 K	–	24.9
333.15 K	1184.8	–
333.2 K	–	23.5
333.9 K	–	24.1
343.15 K	1176.6	–
353.15 K	1168.5	–
353.3 K	–	23.5
354 K	–	23.7
363.15 K	1160.5	–
373.15 K	1152.4	–
373.5 K	–	22.1
374 K	–	22.6
383.15 K	1144.4	–
393.15 K	1136.4	–
393.6 K	–	21.5
394.7 K	–	21.3
403.15 K	1128.4	–
413.15 K	1120.4	–
413.5 K	–	20.9
414.9 K	–	19.7
423.15 K	1112.4	–
433.15 K	1104.3	–
433.6 K	–	18.7
434.8 K	–	19.6
443.15 K	1096.2	–
453.15 K	1088	–
453.6 K	–	17.5
454.5 K	–	17.9
463.15 K	1079.7	–
473.15 K	1071.4	–
473.5 K	–	16.6
474.5 K	–	17
493.4 K	–	15.9
512.9 K	–	15.5
